Assay [1] concerns HT-29. Description: Antiproliferative activity against human HT-29 cells assessed as inhibition of cell growth under normoxia condition by SRB assay. Format: functional, cell-based. For orientation: Sulforhodamine B stains cellular protein and so reports cell mass.
Assay [2] deals with HT-29. Description: Antiproliferative activity against human HT-29 cells assessed as inhibition of cell growth under hypoxia condition by SRB assay. The assay is classed as functional, cell-based.
The test system of assay [3] is SCC-7. The assay is described as follows: Anticlonogenic activity against mouse SCC-7 cells assessed as inhibition of colony formation under aerobic condition by clonogenic survival assay. Format: functional.
Assay [4] has as its system SCC-7. Description: Anticlonogenic activity against mouse SCC-7 cells assessed as inhibition of colony formation under hypoxic condition by clonogenic survival assay. The assay is classed as functional.
For assay [5], the system named is MCF7. Description: Antiproliferative activity against human MCF7 cells assessed as inhibition of cell growth under hypoxic condition by MTT assay. The assay is classed as functional, cell-based. Background: Tetrazolium assays rely on reduction of a dye to a coloured formazan, in cell work by metabolically active cells.
For assay [6], the system named is HCT-116. Description: Antiproliferative activity against human HCT-116 cells assessed as inhibition of cell growth under hypoxic condition by MTT assay. The assay is classed as functional, cell-based.
Assay [7] deals with NCI-H460. Description: Antiproliferative activity against human NCI-H460 cells assessed as inhibition of cell growth under hypoxic condition by MTT assay. Format: functional, cell-based.
For assay [8], the system named is MCF7. The assay is described as follows: Antiproliferative activity against human MCF7 cells assessed as inhibition of cell growth measured after 72 hrs by fluorescence based assay. The assay is classed as functional. The following applies: MCF7, 72 h.
The subject of assay [9] is K562. Description: Antiproliferative activity against human K562 cells assessed as inhibition of cell growth measured after 72 hrs by fluorescence based assay. Format: functional. Conditions: K562, 72 h.
Assay [10] concerns the target Tyrosine-protein kinase JAK2 (Homo sapiens, UniProt O60674). The assay is described as follows: Inhibition of JAK2 (unknown origin).
Assay [11] addresses T1, Tyrosine-protein kinase JAK3 (Homo sapiens, UniProt P52333).
T1 sequence (P52333 whole entry): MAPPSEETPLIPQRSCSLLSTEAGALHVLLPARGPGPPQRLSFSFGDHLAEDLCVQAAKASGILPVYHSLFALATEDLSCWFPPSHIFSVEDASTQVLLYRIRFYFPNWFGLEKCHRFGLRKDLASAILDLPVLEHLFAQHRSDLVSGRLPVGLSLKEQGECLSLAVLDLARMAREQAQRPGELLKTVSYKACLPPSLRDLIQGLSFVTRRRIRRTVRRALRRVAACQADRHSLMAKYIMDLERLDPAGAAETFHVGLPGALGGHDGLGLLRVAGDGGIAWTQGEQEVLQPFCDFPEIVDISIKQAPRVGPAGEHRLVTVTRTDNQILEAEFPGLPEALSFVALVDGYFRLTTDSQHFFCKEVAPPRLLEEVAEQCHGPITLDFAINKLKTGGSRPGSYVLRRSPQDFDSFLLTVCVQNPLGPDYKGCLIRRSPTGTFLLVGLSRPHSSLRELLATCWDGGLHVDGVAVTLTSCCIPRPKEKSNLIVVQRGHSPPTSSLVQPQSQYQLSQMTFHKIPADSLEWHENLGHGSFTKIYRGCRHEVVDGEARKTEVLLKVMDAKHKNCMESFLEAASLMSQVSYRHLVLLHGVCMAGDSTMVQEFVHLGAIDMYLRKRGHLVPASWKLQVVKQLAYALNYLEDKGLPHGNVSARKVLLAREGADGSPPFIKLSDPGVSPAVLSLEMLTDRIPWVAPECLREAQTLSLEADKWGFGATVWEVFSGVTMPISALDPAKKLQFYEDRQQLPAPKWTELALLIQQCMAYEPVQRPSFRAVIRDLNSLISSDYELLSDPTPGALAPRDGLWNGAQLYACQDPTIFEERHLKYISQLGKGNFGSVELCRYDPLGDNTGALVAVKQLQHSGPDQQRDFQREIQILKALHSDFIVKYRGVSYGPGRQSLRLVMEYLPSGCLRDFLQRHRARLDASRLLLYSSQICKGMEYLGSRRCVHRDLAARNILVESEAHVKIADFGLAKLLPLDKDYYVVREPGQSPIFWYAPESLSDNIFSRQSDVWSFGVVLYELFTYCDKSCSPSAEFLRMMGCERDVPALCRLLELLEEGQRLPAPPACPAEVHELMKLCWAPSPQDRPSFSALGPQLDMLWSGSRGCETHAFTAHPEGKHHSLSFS
Description: Inhibition of JAK3 (unknown origin).

Assay [12] concerns MCF7. The assay is described as follows: Antiproliferative activity against human MCF7 cells assessed as inhibition of cell growth. Format: functional, cell-based.
Assay [13] deals with HCT-116. Description: Antiproliferative activity against human HCT-116 cells assessed as inhibition of cell growth. Format: functional, cell-based.

Values after ≈ are worked out from the molar mass of the structure shown.

As usually defined, the IC50 is the midpoint of a concentration-inhibition curve.

Chain of Tyrosine-protein kinase JAK2 (O60674 whole entry): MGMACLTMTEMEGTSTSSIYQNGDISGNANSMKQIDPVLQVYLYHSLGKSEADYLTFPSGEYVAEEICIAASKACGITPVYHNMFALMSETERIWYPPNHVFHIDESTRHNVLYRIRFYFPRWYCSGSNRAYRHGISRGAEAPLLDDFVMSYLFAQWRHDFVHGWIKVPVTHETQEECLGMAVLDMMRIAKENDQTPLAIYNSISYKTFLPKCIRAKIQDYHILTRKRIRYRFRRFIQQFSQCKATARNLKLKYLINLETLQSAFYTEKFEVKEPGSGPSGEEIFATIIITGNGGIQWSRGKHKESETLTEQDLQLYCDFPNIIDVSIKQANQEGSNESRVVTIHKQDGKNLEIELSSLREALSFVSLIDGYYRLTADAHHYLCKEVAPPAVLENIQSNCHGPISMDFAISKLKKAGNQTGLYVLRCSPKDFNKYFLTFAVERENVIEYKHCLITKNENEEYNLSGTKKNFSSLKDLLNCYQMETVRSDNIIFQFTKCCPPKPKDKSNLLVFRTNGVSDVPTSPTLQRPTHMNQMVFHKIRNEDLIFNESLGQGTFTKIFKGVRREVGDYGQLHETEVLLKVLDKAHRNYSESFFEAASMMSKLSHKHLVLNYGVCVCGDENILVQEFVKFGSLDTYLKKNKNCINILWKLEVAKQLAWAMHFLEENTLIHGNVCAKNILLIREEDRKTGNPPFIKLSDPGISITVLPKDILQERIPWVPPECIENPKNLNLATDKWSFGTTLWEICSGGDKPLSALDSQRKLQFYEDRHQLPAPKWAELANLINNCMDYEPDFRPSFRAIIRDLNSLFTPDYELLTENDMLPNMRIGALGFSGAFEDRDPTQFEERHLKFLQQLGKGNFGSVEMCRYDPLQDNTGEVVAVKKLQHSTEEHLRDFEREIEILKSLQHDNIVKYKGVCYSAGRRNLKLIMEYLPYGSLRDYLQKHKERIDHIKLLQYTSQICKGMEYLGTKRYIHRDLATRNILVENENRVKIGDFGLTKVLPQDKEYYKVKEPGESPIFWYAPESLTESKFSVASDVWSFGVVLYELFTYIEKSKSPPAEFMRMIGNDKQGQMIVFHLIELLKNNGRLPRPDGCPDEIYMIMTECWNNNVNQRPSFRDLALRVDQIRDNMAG

For the compound `Cc1cccc2nc3cccc(C(=O)NCCCN(C)CCCNc4n[n+]([O-])c5ccccc5[n+]4[O-])c3nc12`, the figures for the IC50 in assay [1] and in assay [2] were 0.6 µM and 0.016 µM, respectively. Further, the values for the C10 in assay [3] and in assay [4] were 6.4 µM and 0.18 µM, respectively.

In the case of `CN(CCCNC(=O)c1cccc2ccc(-c3ccncc3)nc12)CCCNc1n[n+]([O-])c2ccccc2[n+]1[O-]`, the IC50 stood at 0.6 µM in assay [1] and 0.016 µM in [2]. Further, the C10 in assay [3] was found to be 6.4 µM; in [4], 0.18 µM.

`CN(CCCNC(=O)c1cccc2cccnc12)CCCNc1n[n+]([O-])c2ccccc2[n+]1[O-]`: the results for the IC50 in assay [1] and in assay [2] were 0.6 µM and 0.016 µM, respectively. In addition, the C10 was 6.4 µM in assay [3] and 0.18 µM in assay [4].

As to `CN(CCCNC(=O)c1cccc2nc3ccccc3nc12)CCCNc1n[n+]([O-])c2ccccc2[n+]1[O-]`, the IC50 was 0.6 µM in [1] and 0.016 µM in assay [2]. Further, the C10 in assay [3] was determined as 6.4 µM; in assay [4], 0.18 µM.

In the case of `Cc1cccc2cc3cccc(C(=O)NCCCN(C)CCCNc4n[n+]([O-])c5ccccc5[n+]4[O-])c3nc12`, the concentration for half-maximal inhibition (IC50) in [1] is 0.6 µM; in assay [2] it was 0.016 µM. Also, the C10 was 6.4 µM in [3] and 0.18 µM in [4].

As for `CN(CCCNC(=O)c1cccc2cc3ccccc3nc12)CCCNc1n[n+]([O-])c2ccccc2[n+]1[O-]`, the IC50 in assay [1] amounted to 0.6 µM; in [2], 0.016 µM. In addition, the C10 is 6.4 µM in assay [3] and 0.18 µM in assay [4].

On to `O=C(NCCCCCNc1n[n+]([O-])c2ccccc2[n+]1[O-])C(F)(F)F`, for which the IC50 in assay [5], in assay [6] and in [7] was 11.7 µM each time.

Consider `O=C(NCCCCNc1n[n+]([O-])c2ccccc2[n+]1[O-])C(F)(F)F`, for which the IC50 in [5], in [6] and in [7] was 11.7 µM in each case.

Regarding `CCN(CC)c1nc(=O)n(-c2ccccc2)nc1-c1ccccc1O`, the IC50 in assay [8] and in [9] was 3.5 µM each time.

For `NC(CCCCNc1nc(=O)n(-c2ccccc2)nc1-c1ccccc1O)C(=O)O` (configuration not stated), the IC50 in assay [8] and in assay [9] was 3.5 µM each time.

As for `CC(C)C(Nc1cnnc(-c2c[nH]c3ncc(F)cc23)n1)C(=O)NCC(C)(C)C` (configuration not stated), the IC50 in assay [10] and in assay [11] was not above 0.01 µM in each case.

In the case of `Nc1nc(=O)n(-c2ccccc2)nc1-c1ccccc1O`, the IC50 in assay [8] and in [9] was 3.5 µM in each case.

For the compound `NCCCCNc1n[n+]([O-])c2ccccc2[n+]1[O-]`, the IC50 in [5], in assay [6] and in assay [7] was 11.7 µM each time.

In the case of `NCCCCNc1nc(=O)n(-c2ccccc2)nc1-c1ccccc1O`, the IC50 in assay [8] and in assay [9] was 3.5 µM throughout.

As for `O=C(NCCCNc1n[n+]([O-])c2ccccc2[n+]1[O-])C(F)(F)F`, the IC50 in [5], in assay [6] and in assay [7] was 11.7 µM in each case.

On to `O=c1nc(N2CCCCC2)c(-c2ccccc2O)nn1-c1ccccc1`, for which the IC50 in assay [8] and in assay [9] was 3.5 µM each time.

As to `COc1cc(Cc2nc(-c3ccccc3)nn3cnnc23)cc(OC)c1OC`, the IC50 was 0.74 µg/mL (≈ 1.96 µM) in assay [12] and 0.74 µg/mL in assay [13].

For the compound `NCCCCCCCNc1n[n+]([O-])c2ccccc2[n+]1[O-]`, the IC50 in assay [5], in [6] and in assay [7] was 11.7 µM in each case.

With `NCCNc1n[n+]([O-])c2ccccc2[n+]1[O-]`, the IC50 in assay [5], in assay [6] and in [7] was 11.7 µM each time.

As for `NCCCCCNc1n[n+]([O-])c2ccccc2[n+]1[O-]`, the IC50 in assay [5], in assay [6] and in assay [7] was 11.7 µM each time.

For `CC(C)C(Nc1cnnc(-c2c[nH]c3ncc(Cl)cc23)n1)C(=O)NCC(C)(C)C` (configuration not stated), the IC50 in assay [10] and in [11] was not above 0.01 µM in each case.

Take `CC(C)(C)CNC(=O)C(C)(C)Nc1cnnc(-c2c[nH]c3ncc(F)cc23)n1`: the IC50 in assay [10] and in [11] was not above 0.01 µM in each case.

For the compound `CC(C)(C)CNC(=O)C(C)(C)Nc1cnnc(-c2c[nH]c3ncc(C#N)cc23)n1`, the IC50 in [10] and in assay [11] was not above 0.01 µM throughout.

On to `CC(C)C(Nc1cnnc(-c2c[nH]c3ncc(C(N)=O)cc23)n1)C(=O)NCC(C)(C)C` (configuration not stated), for which the IC50 in [10] and in [11] was not above 0.01 µM in each case.

For `CNc1nc(=O)n(-c2ccccc2)nc1-c1ccccc1O`, the half-maximal inhibitory concentration (IC50) in [8] and in [9] was 3.5 µM throughout.

As to `O=c1nc(NC2CCCCC2)c(-c2ccccc2O)nn1-c1ccccc1`, the half-inhibitory concentration (IC50) in assay [8] and in [9] was 3.5 µM in each case.

For the compound `CC(Nc1cnnc(-c2c[nH]c3ncc(C#N)cc23)n1)C(=O)NCC(C)(C)C` (configuration not stated), the IC50 in assay [10] and in assay [11] was not above 0.01 µM each time.

As to `COc1cc(Cc2nc(-c3ccc(Cl)cc3)nn3c(=S)[nH]nc23)cc(OC)c1OC`, the IC50 in [12] stood at 0.74 µg/mL (≈ 1.67 µM); in assay [13], 0.74 µg/mL.

On to `NCCCCCCCCNc1n[n+]([O-])c2ccccc2[n+]1[O-]`, for which the IC50 in [5], in assay [6] and in assay [7] was 11.7 µM each time.

Take `O=c1nc(Nc2ccccc2)c(-c2ccccc2O)nn1-c1ccccc1`: the IC50 in assay [8] and in assay [9] was 3.5 µM each time.

For the compound `NCCCNc1n[n+]([O-])c2ccccc2[n+]1[O-]`, the IC50 in [5], in assay [6] and in [7] was 11.7 µM each time.

As for `O=c1nc(NCCCCCCNc2nc(=O)n(-c3ccccc3)nc2-c2c(O)ccc3ccccc23)c(-c2c(O)ccc3ccccc23)nn1-c1ccccc1`, the IC50 in assay [8] and in assay [9] was 3.5 µM throughout.

For `CC(C)(C)CNC(=O)C(C)(C)Nc1cnnc(-c2c[nH]c3ncc(C(N)=O)cc23)n1`, the IC50 in assay [10] and in [11] was not above 0.01 µM each time.

As to `NNc1nc(=O)n(-c2ccccc2)nc1-c1ccccc1O`, the IC50 in assay [8] and in assay [9] was 3.5 µM in each case.

In the case of `O=c1nc(NCCCCCN(CCCNc2nc(=O)n(-c3ccccc3)nc2-c2ccccc2O)c2nc(=O)n(-c3ccccc3)nc2-c2ccccc2O)c(-c2ccccc2O)nn1-c1ccccc1`, the IC50 in assay [8] and in [9] was 3.5 µM throughout.

For `NCCNc1nc(=O)n(-c2ccccc2)nc1-c1ccccc1O`, the IC50 in [8] and in assay [9] was 3.5 µM each time.

`NCCCCCCNc1n[n+]([O-])c2ccccc2[n+]1[O-]`: the IC50 in [5], in assay [6] and in [7] was 11.7 µM throughout.

Consider `O=c1nc(NNc2ccccc2)c(-c2ccccc2O)nn1-c1ccccc1`, for which the IC50 in [8] and in [9] was 3.5 µM each time.

Consider `CC(C)C(Nc1cnnc(-c2c[nH]c3ncc(C#N)cc23)n1)C(=O)NCC(C)(C)C` (configuration not stated), for which the IC50 in assay [10] and in [11] was not above 0.01 µM in each case.

`COc1cc(-c2csc3nnc(-c4ccc(Cl)cc4)nc23)cc(OC)c1OC`: the IC50 in [12] was determined as 0.74 µg/mL (≈ 1.79 µM); in assay [13] it was 0.74 µg/mL.

As to `COc1cnc2[nH]cc(-c3nncc(NC(C(=O)NCC(C)(C)C)C(C)C)n3)c2c1` (configuration not stated), the IC50 in assay [10] and in assay [11] was not above 0.01 µM in each case.

Regarding `NC(=O)NNc1nc(=O)n(-c2ccccc2)nc1-c1ccccc1O`, the IC50 in assay [8] and in [9] was 3.5 µM in each case.

Consider `O=C(NCCNc1n[n+]([O-])c2ccccc2[n+]1[O-])C(F)(F)F`, for which the IC50 in [5], in assay [6] and in [7] was 11.7 µM throughout.

For the compound `CN1CCN(CC(=O)Nc2cc(C(=O)Nc3ncc(-c4ccccc4)nn3)ccc2OC(F)(F)F)CC1`, the IC50 in assay [13] was determined as 0.016 µM.

For the compound `CC(Nc1cnnc(-c2c[nH]c3ncc(C(N)=O)cc23)n1)C(=O)NCC(C)(C)C` (configuration not stated), the IC50 in [10] and in assay [11] was not above 0.01 µM each time.

These data come from ChEMBL document CHEMBL5260813, “An overview on the recent developments of 1,2,4-triazine derivatives as anticancer compounds” (Eur J Med Chem, 2017).
